How the values were obtained:
[1] = test system: mice treated with S. aureus; assay: S. aureus pulmonary infection model (bacterial pneumonia); format: in vivo, mouse; details: for NETosis (citrullinated histone H3 and MPO-DNA complexes in BALF): ELISA, FIGS. 3E and 3F; for bacterial control (S. aureus CFU in lung homogenates): FIG. 3D; for numbers of neutrophils in the BALF: FIG. 3I; for neutrophils circulating in the blood: FIGS. 3H, 7A; for lung barrier alteration (albumin content in BALF): compared with S. aureus alone, FIG. 3C; for citrullinated histone H3-positive neutrophils in the BALF: cytofluorimetric quantification, FIG. 3G; for IL-1β / IL-6: in the BALF, compared with S. aureus only, FIGS. 7B-7D
mice challenged with LPS = assay: In vivo LPS-induced septic shock; parameters: species or system mouse; details: for platelet counts in the blood: 2 h post LPS challenge, compared with LPS alone, FIGS. 4C, 8D; for pro-inflammatory cytokine production (serum, ELISA): FIGS. 4E-4G; for neutrophils levels (blood and peritoneal lavage): FIGS. 8A-8C; for release of NETs by neutrophils in the peritoneal lavage (CitH3-positive neutrophils): cytofluorimetry, FIG. 4D; for body temperature 2 h post challenge: ricolinostat 30 mg/kg/dose or GSK484 25 mg/kg/dose i.p., FIG. 4B
Protocol: FIGS. 4A-G. Class I/IIb HDAC inhibition protects against systemic inflammation • (A) Time line of drug treatment and LPS priming and challenge. Mice were intraperitoneally injected, or not, with two doses of ricolinostat or GSK484 and were then intraperitoneally administered with two doses of LPS (−5 h, 1 mg/kg and 0 h, 2 mg/kg) to induce lethal sepsis. Peritoneal lavage and blood were collected 2 h after the LPS challenge. • (B) Body temperature was measured 2 h post challenge. • (C) Concentration of platelets in the blood was measured by cytofluorimetry. • (D) NETosis was measured as neutrophils (Ly6G+/CD11b+) positive for citrullinated histone H3 staining in the peritoneal lavage. • (E-G) Serum cytokines were measured by ELISA. […] Statistics were calculated using one-way ANOVA (*p<0.05; ** p<0.01; *** p<0.001; ****p<0.0001; n.s., not significant). n=15 for each group except the GSK484-treated group (n=10). Gray stars represent comparison of all experimental groups with the saline-treated healthy control. Black stars represent comparison of drug-treated groups with LPS-stimulated mice without drug treatment. Violin plots represent median (dashed line) with quartiles (dotted line). See also FIGS. 8A-F.
FIGS. 8A-F. Class I/IIb HDAC inhibition protects against systemic inflammation. • A-C) Neutrophils numbers and percentage were calculated in blood (A, B) and peritoneal lavage (C) of mice challenged, or not, with LPS. Saline group represent healthy mice. NT group represent mice that were challenged with LPS without receiving any drug. Ricolinostat (30 mg/kg/dose) or GSK484 (25 mg/kg/dose) were administered intraperitoneally at day −1, and 2 hour prior LPS priming. • D) Concentration of platelets in the blood was assessed by cytofluorimetry 2 hours post LPS-challenge. • E, F) Absolute amounts of serum cytokines were measured by ELISA. Violin plots represent median (dashed line) with quartiles (dotted line). Statistics were calculated using One-way ANOVA (*P<0.05; **P<0.01; ***P<0.001; ****P<0.0001; n.s., not significant). Grey stars represent comparison of all experimental groups with the saline control. Black stars represent comparison of drug treated groups with NT group.
Alternatively, neutrophils positive for citrullinated histone H3 were quantified by cytofluorimetry. Briefly, neutrophils from bronco-alveolar lavage fluid or peritoneal lavage fluid were stained for Ly6G, CD11b, CD45 and Zombie dye for 20 minutes at room temperature and then fixed with BD FACS Lysing Solution (cat #349202, BD Biosciences). Samples were washed twice with Intracellular Staining Permeabilization Wash buffer (cat #421002, Biolegend), incubated with anti-citrullinated histone H3 antibody (Abcam) 1 hour at room temperature and subsequently with PE anti-rabbit antibody for 30 minutes. Finally, samples were acquired with BD FACS Fortessa and neutrophils (CD45+/Ly6G+/CD11b+) positive for citrullinated histone H3 were quantified with FlowJo software.
8-week-old female mice were primed with 1 mg/kg of LPS intra peritoneum (i.p.) for 5 hours and then challenged with 2 mg/kg of LPS i.p. Ricolinostat was used at 30 mg/kg/dose, GSK484 at 25 mg/kg/dose and dexamethasone at 10 mg/kg/dose. Drugs were administered i.p. at day −1 and 2 hours prior priming. Blood samples were collected 2 hours post-challenge and cytokines were measured by ELISA. The platelet concentrations and neutrophils numbers in the blood and peritoneal cavity were calculated by cytofluorimetry using CountBright Absolute Cell Counting Beads (Thermo Scientific) according to the manufacturer's instructions. NETosis was measured as quantity of neutrophils in the peritoneal lavage positive for citrullinated histone H3 by cytofluorimetry.

SMILES | NETosis (citrullinated histone H3 and MPO-DNA complexes in BALF) [1] | bacterial control (S. aureus CFU in lung homogenates) [1] | numbers of neutrophils in the BALF [1] | neutrophils circulating in the blood [1] | lung barrier alteration (albumin content in BALF) [1] | citrullinated histone H3-positive neutrophils in the BALF [1] | IL-1β [1] | IL-6 [1] | platelet counts in the blood (mice challenged with LPS) | pro-inflammatory cytokine production (serum, ELISA) (mice challenged with LPS) | neutrophils levels (blood and peritoneal lavage) (mice challenged with LPS) | release of NETs by neutrophils in the peritoneal lavage (CitH3-positive neutrophils) (mice challenged with LPS) | body temperature 2 h post challenge (mice challenged with LPS) | morbidity (body temperature) ([1]; ricolinostat 30 mg/kg/dose i.p. at -24 h and -3 h, compared with S. aureus only and with S. aureus and GSK484, FIG. 3B) | pro-inflammatory cytokine production (serum, ELISA), comparison with dexamethasone (mice challenged with LPS; dexamethasone 10 mg/kg/dose, ricolinostat 30 mg/kg/dose, FIGS. 8E and 8F)
COc1cc(C(=O)N2CC[C@@H](O)[C@@H](N)C2)cc2nc(-c3cc4ccccc4n3CC3CC3)n(C)c12 [GSK484] | potently decreased | not affected | increased numbers | no major differences | prevented | inhibit NETosis | significantly decreased | significantly decreased | significantly higher | significantly decreased | increased neutrophils levels | reduced release of NETs | no temperature loss | – | –
O=C(CCCCCCNC(=O)c1cnc(N(c2ccccc2)c2ccccc2)nc1)NO [ricolinostat] | potently decreased | not affected | increased numbers | no major differences | prevented | inhibit NETosis | significantly decreased | significantly decreased | significantly higher | significantly decreased | increased neutrophils levels | reduced release of NETs | no temperature loss | significantly decreased | efficiently reduced

Reference: patent publication US20240366594A1, “Small Molecule Inhibitors of Formation of Neutrophil-Derived Extracellular Traps (NETosis) and Uses Thereof” (The Brigham and Women's Hospital, Inc., priority 2021, published 2024)
